Measured values as given in PMC2225439, “Amyloid as a Depot for the Formulation of Long-Acting Drugs” (PLoS Biology, 2008).
*1 amine or outer side, *2 acyl side, *3 side chain or, on linkers, in order; H or OH if unused. Where a SMILES comes first, the peptide text is derived from it. Side-chain parts run from the residue outwards. [ ]: non-standard residue; d: D form. The star is where a group is joined. dPhe(4-NHCONH2) = NC(=O)Nc1ccc(C[C@@H](N)C(=O)O)cc1; Dihydroorotyl(S) = O=C1C[C@@H](C(=O)*)NC(=O)N1; dPhe(4-NH2) = Nc1ccc(C[C@@H](N)C(=O)O)cc1; dPhe(4-Cl) = N[C@H](Cc1ccc(Cl)cc1)C(=O)O; Phe(4-NH2) = Nc1ccc(C[C@H](N)C(=O)O)cc1; d2Nal = N[C@H](Cc1ccc2ccccc2c1)C(=O)O; Lys(iPr) = CC(C)NCCCC[C@H](N)C(=O)O; NHCH2CH2OCH2CH2OEt = CCOCCOCCN*; d3Pal = N[C@H](Cc1cccnc1)C(=O)O; Methoxycarbamoyl = CONC(=O)*; Nicotinoyl = O=C(c1cccnc1)*; PEG3 = NCCOCCOCCOCCC(=O)O; CO = O=C([*:1])[*:2]; Butyryl = CCCC(=O)*

Tests used:
[1] = Peptide release from amyloid (dialysis experiment); conditions: 35 d; for stability of fibrils from release profile (in words): dialysis of 30-d-old samples; for t1/2: half-life of fibrils: time in which fluorescence inside drops by 50%, dialysis of 30-d-old analog, 3.5-kDa MWCO, 5% D-mannitol, room temperature, exponential fit, 2 d = intrinsic diffusion of monomer
Description: Although amyloid fibrils are very stable, they must follow thermodynamic equilibrium conditions between fibril and monomer. […] A total of 200 μl of 30-d-old GnRH analog (in) was dialyzed 4 ml of 5% D-mannitol (out). A 3.5-kDa cutoff, which is twice the size of the peptides studied, was chosen to ensure that the released particles are most likely monomeric. The peptide release and the remaining aggregates were monitored by fluorescence over 35 d at room temperature.
A 200-μl aliquot of aged GnRH in solution conditions given above was transferred into a 0.6-ml Eppendorf tube with a hole in the cap. To study the effect of heparin on peptide release, a mixture of hormone analog and heparin (1:1 v/v) was incubated overnight in parallel with a half-diluted peptide fibril sample in 5% D-mannitol and 0.01% sodium azide. The hole in the cap of the Eppendorf tube was sealed with a 3.5-kDa molecular weight cutoff (MWCO) membrane. Next, the Eppendorf tube was inserted upside down into a 15-ml Falcon tube containing 4 ml of 5% D-mannitol in water and 0.01% sodium azide. Care was taken to make sure that the membrane was exposed to solutions both in and outside and that any bubbles at the membrane interface were removed. The tubes were then incubated at room temperature. To measure the remaining peptide concentration inside the 0.6-ml Eppendorf tube, a 5-μl aliquot was diluted into 500 μl water with 5% D-mannitol, 0.01% sodium azide, and the fluorescence was measured with excitation at 280 nm and emission in the range of 290–500 nm. The excitation slit width was 2 nm, and emission slit width was 11 nm. To determine the peptide concentration outside the membrane in the 15-ml tube, an aliquot of 250 μl of solution was taken from the releasing medium, diluted into 500 μl final volume by 5% D-mannitol, 0.01% sodium azide, and fluorescence was measured. Following spectra recording, the dialysis system was reassembled as described above. […] The normalized intensity maxima from inside and outside the membrane were plotted as a function of time and fit by an exponential function to extract the half-life of the fibrils and the K off, respectively. […] The extracted half-life, t 1/2, is the time taken, during which the fluorescence signal inside the 0.6-ml Eppendorf tube drops by 50%.

[2] = Thio T binding (amyloid fibril formation); format: physicochemical; set-up: key to Thio T Binding: b, binding; n, not binding; conditions: 1 mg/ml in 5% D-mannitol, 0.01% sodium azide, room temperature without stirring, monitored daily over 21 d; fluorescence ex 450 nm / em 482 nm; three independent experiments
Description: The kinetics of fibril formation in vitro is generally a slow process over several days or weeks, and can be monitored by the increase of fluorescence intensity of the cross-β-sheet–sensitive dye, Thio T [15]. Thio T fluorescence is thereby insignificant during the initial incubation period of amyloid aggregation due to the nonexistence of Thio T–sensitive β-sheet aggregates. After the initial phase, a time-dependent increase of fluorescence intensity is observed until a maximum intensity is reached, at which time maximal fibril formation has occurred. […] For the Thio T binding studies, all GnRH analogs were incubated at room temperature at a concentration of 1 mg/ml in 5% D-mannitol, conditions identical to the formulation used in the animal experiments. In addition, 0.01% sodium azide was added. The Thio T fluorescence was monitored daily for all analogs over a period of 21 d (Figure 1).
(§1) GnRH analogs were dissolved in a glass tube in 1 ml of 5% D-mannitol and 0.01% sodium azide at a concentration of 1 mg/ml. The GnRH analogs were then incubated at room temperature without stirring. The fibril formation was monitored by EM, CR, and time-resolved by Thio T binding studies. Three independent experiments were performed for each sample.
A 10-μl aliquot of peptide sample was diluted into 500 μl of water with 5% D-mannitol containing 0.01% (w/v) sodium azide. The solution was mixed with 10 μl of 1 mM Thio T prepared in the same solution. Fluorescence was measured immediately after addition of Thio T. The experiment was measured on a spectrofluorimeter (Photon Technology International) with excitation at 450 nm and emission at 482 nm. The fluorescence intensity at 482 nm was plotted against incubation time (day). A rectangular 10-mm quartz microcuvette was used. Three independent experiments were performed for each sample.

Congo red (CR) binding = format: physicochemical; set-up: key to Congo Red: b, binding; n, not binding; conditions: analogs incubated for 30 d, 1 mg/ml in 5% D-mannitol, 0.01% sodium azide, room temperature; UV 300–700 nm and by eye; three independent experiments
Description: To confirm amyloid formation by GnRH analogs, CR binding was measured. CR, like Thio T, is a dye routinely used to detect β-sheet–rich assemblies. CR binding can be measured by the “red shift” change of its absorption maximum from 490 to 540 nm, by an increase of the dye's molar absorptivity, and in favorable cases by eye. All three types of measurements were performed with GnRH analogs incubated for 30 d. […] However, five short-acting GnRH analogs, i.e., S3, S4, S6, S10, and S11, bind CR, showing that some short-acting GnRH-analogs are able to form amyloids after prolonged incubation (see also below). In contrast to short-acting analogs, all long-acting analogs bind CR.
as §1
A 5-μl aliquot of peptide sample was mixed with 80 μl of PBS buffer containing 10% ethanol. Then 15 μl of a 100 μM CR solution (filtered through 0.2-μm filter) in PBS containing 10% ethanol was added. After mixing, UV was measured from 300–700 nm. For the measurement of the CR-only spectrum, 15 μl of CR solution with 85 μl of PBS containing 10% ethanol was prepared. As a control, a 5-μl aliquot of GnRH analog mixed with 95 μl of PBS containing 10% ethanol was measured. Three independent experiments were performed for each sample. In addition to the UV measurements, pictures of the cuvette containing the peptide sample and CR were taken to visually show the CR binding to the amyloids.

[3] = Electron microscopy of negative-stained samples; format: physicochemical; set-up: key to EM^8 / EM^30: fib, fibrils; nfib, no fibrils; conditions: for EM, formation of amyloid-like fibrils at day 30 (in words): 30 d of incubation; for EM^8: electron microscopy at day 8 of incubation; for EM^8 / EM^30: 1 mg/ml in 5% D-mannitol, room temperature, at least two independent experiments; for EM^30: electron microscopy at day 30 of incubation
Description: To formally determine the formation of amyloid fibrils by GnRH analogs and to characterize other possible assemblies present in the sample, EM was done on all of the GnRH analogs. Since the EM analysis is for a qualitative interpretation only, amyloid fibrils and other small aggregates might be observed under the electron microscope even if only a minority of the sample forms fibrils. Samples were studied after 8 and 30 d of incubation. […] The fibrils show a wide variety of morphologies, comprising helical ultrastructures with varying degrees of lateral association. Furthermore, the fibrils are composed of one or more filaments, resulting in overall diameters ranging from approximately 6 to 12 nm. No oligomers are observed for the long-acting compounds at day 8 or at day 30 (Figures 2 and S2).
as §1
A 5-μl aliquot of peptide sample was diluted into 50 μl of water to a peptide concentration of approximately 50 μM, spotted on a glow-discharged, carbon-coated Formvar grid (Electron Microscopy Sciences), incubated for 5 min, washed with distilled water, and then stained with 1% (w/v) aqueous uranyl formate solution. Uranyl formate solutions were filtered through 0.2-μm sterile syringe filters (Corning) before use. EM analysis was performed using a JEOL JEM-100CXII electron microscope at 80 kV with nominal magnifications between 36,000 and 72,000. Images were recorded digitally by using the SIS Megaview III imaging system. At least two independent experiments were carried out for each sample.

stability of fibrils from release profile (in words) [1]	Thio T Binding [2]	Congo Red (Congo red (CR) binding)	EM^8 [3]	EM^30 [3]	t1/2 [1] [h]	Compound	EM, formation of amyloid-like fibrils at day 30 (in words) [3]	EM, formation of amyloid-like fibrils at day 8 (in words) ([3]; 8 d of incubation)
form unstable fibrils	–	–	–	–	–	CONC(=O)NCCOCCOCCOCCC(=O)Nc1ccc(C[C@H](NC(=O)[C@H](CO)NC(=O)[C@@H](Cc2cccnc2)NC(=O)[C@@H](Cc2ccc(Cl)cc2)NC(=O)[C@@H](Cc2ccc3ccccc3c2)NC(C)=O)C(=O)N[C@H](Cc2ccc(NC(N)=O)cc2)C(=O)N[C@@H](CC(C)C)C(=O)N[C@@H](CCCCNC(C)C)C(=O)N2CCC[C@H]2C(=O)N[C@H](C)C(N)=O)cc1 [S2, [Aph(CO-(C2H4O)3-C2H4-NH-CO-NH-OCH3)^5]degarelix] (Ac-[d2Nal][dPhe(4-Cl)][d3Pal]S[Phe(4-NH2)]([PEG3-Methoxycarbamoyl])[dPhe(4-NHCONH2)]L[Lys(iPr)]P[dA]-NH2)	–	–
form unstable fibrils	–	–	–	–	–	CC(=O)N[C@H](Cc1ccc2ccccc2c1)C(=O)N[C@H](Cc1ccc(Cl)cc1)C(=O)N[C@H](Cc1cccnc1)C(=O)N[C@@H](CO)C(=O)N[C@@H](CCCCNC(=O)c1cccnc1)C(=O)N[C@H](CCCCNC(=O)c1cccnc1)C(=O)N[C@@H](CC(C)C)C(=O)N[C@@H](CCCCNC(C)C)C(=O)N1CCC[C@H]1C(=O)N[C@H](C)C(N)=O [S6, Ac-DNal-DCpa-DPal-Ser-Lys(Nic)-DLys(Nic)-Leu-ILys-Pro-DAla-NH2, reference compound] (Ac-[d2Nal][dPhe(4-Cl)][d3Pal]SK(Nicotinoyl)[dK](Nicotinoyl)L[Lys(iPr)]P[dA]-NH2)	–	–
form unstable fibrils	–	–	–	–	–	CCOCCOCCNC(=O)Nc1ccc(C[C@@H](NC(=O)[C@H](Cc2ccc(NC(=O)[C@@H]3CC(=O)NC(=O)N3)cc2)NC(=O)[C@H](CO)NC(=O)[C@@H](Cc2cccnc2)NC(=O)[C@@H](Cc2ccc(Cl)cc2)NC(=O)[C@@H](Cc2ccc3ccccc3c2)NC(C)=O)C(=O)N[C@@H](CC(C)C)C(=O)N[C@@H](CCCCNC(C)C)C(=O)N2CCC[C@H]2C(=O)N[C@H](C)C(N)=O)cc1 [S11, [DAph(CONH(C2H4O)2-C2H5]degarelix] (Ac-[d2Nal][dPhe(4-Cl)][d3Pal]S[Phe(4-NH2)](Dihydroorotyl(S))[dPhe(4-NH2)]([CO-NHCH2CH2OCH2CH2OEt])L[Lys(iPr)]P[dA]-NH2)	–	–
–	n	n	nfib	nfib	48	Ac-D3-Pro-DFpa-DTrp-Ser-Tyr-DTrp-Leu-Arg-Pro-Gly-NH2 [S5, reference compound]	do not form any detectable amyloid-like fibrils	–
–	b	b	fib	fib	–	Ac-DNal-DCpa-DPal-Ser-Aph(Atz)-DAph(Atz)-Leu-ILys-Pro-DAla-NH2 [L19, reference compound]	–	–
–	n	n	nfib	nfib	48	Ac-DNal-DCpa-DPal-Ser-Arg-DGlu(AA)-Leu-Arg-Pro-DAla-NH2 [S7, reference compound]	do not form any detectable amyloid-like fibrils	–

Compound	stability of fibrils from release profile (in words) [1]	Thio T Binding [2]	Congo Red (Congo red (CR) binding)	EM^8 [3]	EM^30 [3]	t1/2 [1] [h]	EM, formation of amyloid-like fibrils at day 30 (in words) [3]	EM, formation of amyloid-like fibrils at day 8 (in words) ([3]; 8 d of incubation)
CCOCCOCCNC(=O)N[C@H](Cc1ccc2ccccc2c1)C(=O)N[C@H](Cc1ccc(Cl)cc1)C(=O)N[C@H](Cc1cccnc1)C(=O)N[C@@H](CO)C(=O)N[C@@H](Cc1ccc(NC(=O)[C@@H]2CC(=O)NC(=O)N2)cc1)C(=O)N[C@H](Cc1ccc(NC(=O)NOC)cc1)C(=O)N[C@@H](CC(C)C)C(=O)N[C@@H](CCCCNC(C)C)C(=O)N1CCC[C@H]1C(=O)N[C@H](C)C(N)=O [S3, des-Ac-[D-Aph(CO-NH-OCH3)^6]-C2H5-(C2H4O)2-NH-CO-degarelix] ({NHCH2CH2OCH2CH2OEt-CO}-[d2Nal][dPhe(4-Cl)][d3Pal]S[Phe(4-NH2)](Dihydroorotyl(S))[dPhe(4-NH2)](Methoxycarbamoyl)L[Lys(iPr)]P[dA]-NH2)	form very stable amyloids with very little peptide release	–	–	–	–	–	–	–
CCCC(=O)N[C@H](Cc1ccc2ccccc2c1)C(=O)N[C@H](Cc1ccc(Cl)cc1)C(=O)N[C@H](Cc1cccnc1)C(=O)N[C@@H](CO)C(=O)N[C@@H](Cc1ccc(NC(=O)NOC)cc1)C(=O)N[C@H](Cc1ccc(NC(=O)NOC)cc1)C(=O)N[C@@H](CC(C)C)C(=O)N[C@@H](CCCCNC(C)C)C(=O)N1CCC[C@H]1C(=O)N[C@H](C)C(N)=O [S4, des-Ac-[Aph(CO-NH-OCH3)^5,D-Aph(CO-NH-OCH3)^6]-CH3-(CH2)2-CO-degarelix] (Butyryl-[d2Nal][dPhe(4-Cl)][d3Pal]S[Phe(4-NH2)](Methoxycarbamoyl)[dPhe(4-NH2)](Methoxycarbamoyl)L[Lys(iPr)]P[dA]-NH2)	form very stable amyloids with very little peptide release	–	–	–	–	–	–	–
des-Ac-[Aph(CO-NH-OCH3)^5]-CH3-(CH2)2-CO-degarelix [L16]	–	b	b	fib	fib	–	–	Short worm-like protofibrils
